Data on 8 molecules can be found in patent US4968686A, “Acyclic pyrrolo [2,3-d]pyrimidine analogs as antiviral agents” (The Regents of The University of Michigan, priority 1989, dated 1990).

Like-named read-outs stand apart in the source and are kept apart here.

Data set [1] has as its system HSV-1. Description: HSV-1 plaque reduction assay, strain S148. Type of data set: cell-based, herpes simplex virus type 1 (strain S148) in BSC-1 cells. Conditions: for IC50: Human alphaherpesvirus 1, Table 1, strain S148, BSC-1 cells, read-out: 50% Inhibitory Concentration HSV-1 Plaque. From the text: (§1) The 148 strain of HSV-1 was used in most experiments and was provided by Dr. T. W. Schafer of Schering corporation. The HF strain of HSV-1 was used in selected experiments and was obtained from Dr. G. H. Cohen, University of Pennsylvania. The Towne strain, plaque-purified isolate Po, of HCMV was a gift of Dr. Mark Stinski, University of Iowa.
(§2) HSV-1 was titered using monolayer cultures of BSC-1 cells. Cells were planted at 3×10^5 cells/well using 6-well cluster dishes. MEM(E) supplemented with 10% fetal bovine serum was employed as medium. After 22-24 hours, cells were 90% confluent and were inoculated in triplicate using at least three ten-fold dilutions with 0.2 ml of the virus suspension to be assayed and incubated in a humidified 4% CO2 […] atmosphere for one hour to permit viral adsorption. Following virus adsorption, the cell sheet was overlayed with 5 ml of MEM(E) with 5% serum plus 0.5% methocel (4000 CPS) and incubated an additional two to three days. Cells were fixed and stained with 0.1% crystal violet in 20% methanol and macroscopic plaques enumerated.
(§3) Plaque reduction experiments were HSV-1 were performed using monolayer cultures of BSC-1 cells. The assay was performed exactly as described above except that the 0.2 ml virus suspension contained approximately 100 p.f.u. of HSV-1. Compounds to be tested were dissolved in the overlay medium at concentrations usually ranging from 0.1 to 100 μM in half-or-one logarithm10 dilutions. Titer reduction assays were performed by planting KB cells in 25 cm^2 plastic tissue culture flasks 10 to 24 hours prior to infection. At the onset of experiments, logarithmically growing replicate monolayer cultures were 60 to 80% confluent and contained 2.5 to 4.5×10^6 cells/flask. Medium was decanted and the cultures were infected with 2 to 10 p.f.u. of HSV-1 per cell. Virus was contained in 1.0 ml of VGM supplemented with 5% fetal bovine serum. After a 1 hour adsorption period at […], the cell sheet was rinsed twice with 2 ml of VGM without serum to remove unadsorbed virus and 5 ml of VGM containing drugs at three to five selected concentrations added in duplicate. Following an 18- to 22-hour incubation at 37° C., infected monolayers were treated with EDTA-trypsin to suspend the cells; aliquots were removed, subjected to three cycles of freezing and thawing, and stored at -76° C. for subsequent virus assay. Virus was titered on BSC-1 cells as described above.
(§4) Dose-response relationships were used to compare drug effects. These were constructed by linearly regressing the percent inhibition of parameters derived in the preceding sections against log drug concentrations. The 50% inhibitory (I50) concentrations were calculated from the regression lines using the methods described by Goldstein. See Goldstein, A., Biostatistics: An Introductory Text, MacMillan, N.Y., 1964, pp. 156-161. Along with the I50 concentration for visual cytotoxicity, the averaged I50 concentrations are compared to I50 concentrations for inhibition for HCMV or HSV-1 replication. Compounds for which the ratio of cytotoxicity I50 concentrations to antiviral I50 concentrations (in vitro therapeutic index) were greater than 10, were considered for further study.
A general note: In a plaque reduction assay, fewer plaques than in the control indicate reduced infectivity or spread.

In data set [2] the test system is HCMV. In words: HCMV titer, plaque or yield reduction. It counts as cell-based, human cytomegalovirus (Towne strain) in HFF cells.
Excerpt: as §1
(§5) HCMV was titered in 24-well cluster dishes which were planted to contain 5×10^4 cells/well, grown as described above. When the cells were 70 to 80% confluent, 0.2 ml of the virus suspension was added per wall and adsorbed as described above. At least three ten-fold dilutions of each preparation were used. Following virus adsorption, the cell sheets were overlayed with 0.5% methocel (4000 CPS) in maintenance medium [MEM(E) with 1.1 gm/liter NaHCO3, 100 units/ml penicillin G, 100 μg/ml streptomycin, and 5% fetal bovine serum]. The cultures were incubated in a humidified atmosphere of 4% CO2 -96% air. Viral foci were visible 5 to 7 days after infection using at least 10-fold magnification. Cells were fixed and stained by a 10-minute exposure to a 0.1% solution of crystal violet in 20% methanol 7 to 12 days after infection. Microscopic foci were enumerated at 20-fold magnification using a Nikon Profile Projector.
The effect of compounds of the replication of HCMV has been measured using both a plaque (focus) reduction assay and a titer (yield) reduction assay. For the former, HFF cells in 24-well culture dishes were infected with approximately 50 p.f.u. of HCMV per well using the procedures detailed above. Compounds dissolved in growth medium were added in three to six selected concentrations to triplicate wells following virus adsorption. Following incubation at 37° C. for 7 to 10 days, cell sheets were fixed, stained and microscopic foci were enumerated as described above. Drug effects were calculated as a percentage of reduction in number of foci in the presence of each drug concentration compared to the number observed in the absence of drug. DHPG (ganciclovir) was used as a positive control in all experiments.
(§6) For titer reduction analysis, HFF cells were planted as described above in 24-well cluster dishes or in 25 cm^2 flasks. When monolayers were approximately 70% confluent, HCMV was added at a m.o.i. of 0.5 p.f.u. per cell and adsorbed as detailed above. Compounds dissolved in growth medium were added in one or one-half logarithm10 dilutions and incubation continued at 37° C. After 7 to 10 days of incubation, culture dishes or flasks were frozen at […] For titer determination, cells were thawed and then subjected to two more cycles of freezing and thawing at 37° C. Serial, one-logarithm10 dilutions of the final suspension were prepared and inoculated onto new cultures of HFF cells. Titer determination was as detailed above in part (1) (b).
as §4

In data set [3] the test system is HCMV. Description: HCMV titer (yield) reduction assay. It counts as cell-based. To be noted: Human betaherpesvirus 5; for IC90: Table 1, I90, HFF cells, read-out: HCMV Yield, 90% inhibitory concentration (I90).
Excerpt: as §1, §5, §6, §4

Data set [4] is described as follows: Visual cytotoxicity scoring in BSC-1 cells. Type of data set: cell-based. To be noted: african green monkey, Table 1, at time of HSV-1 plaque enumeration, read-out: 50% Inhibitory Concentration Cytotoxicity BSC (visual).
Excerpt: (§7) Cytotoxicity produced in HFF and BSC-1 cells was estimated by visual scoring of cells not affected by virus infection in the HCMV and HSV-1 plaque reduction assays. Cytopathology was estimated at 35- and 60-fold magnification and scored on a zero to four plus basis. Wells were scored on the day of staining.
as §4

The test system of data set [5] is HSV-1. In words: HSV-1 titer (yield) reduction assay. It counts as cell-based, herpes simplex virus type 1 in KB cells. To be noted: read-out: HSV-1 Yield, 90% inhibitory concentration (I90).
Excerpt: as §1, §2, §3
Drug effects were calculated as a percentage of the reduction in virus titers in the presence of each drug concentration compared to the titer obtained in the absence of drug. Acylovir was used as a positive control in all experiments.
as §4

A short description of data set [6]: Visual cytotoxicity scoring in HFF cells. Type of data set: cell-based. Conditions: human, Table 1, at time of HCMV plaque enumeration, read-out: 50% Inhibitory Concentration Cytotoxicity HFF (visual).
Excerpt: as §7, §4

Setting [7] is: Human betaherpesvirus 5, Table 2, read-out: HCMV Titer, Plaque or Yield Reduction, 50% Inhibitory Concentration.
Setting [8] is: Human alphaherpesvirus 1, Table 1, I90, strain S148, KB cells.

Take `Nc1nc2c(ncn2COCCO)c(=O)[nH]1` [Acyclovir, reference compound]: the figures for the IC50 in data set [1] and in data set [2] (setting [7]) were 4 µM and 63 µM, respectively. Further, the “activity against HCMV (in words)” value in data set [2] is listed as “only modest activity”. Moreover, the IC90 in data set [3] was 90 µM; in data set [5] (setting [8]), 7 µM. In addition, the CC50 in data set [4] and in data set [6] was over 100 µM each time.
`Nc1nc(O)c2ncn(COC(CO)CO)c2n1` [Ganciclovir (DHPG), reference compound]: the figures for the IC50 in data set [1] and in data set [2] (setting [7]) were 4.5 µM and 8.8 µM, respectively. Further, the IC90 in data set [3] came to 1.8 µM; in data set [5] (Human alphaherpesvirus 1, KB) it was 1.2 µM. Moreover, the CC50 in data set [4] and in data set [6] was over 100 µM each time.
`Nc1ncnc2c1c(Cl)cn2COCCO` [UMJD 100, 4-Amino-5-chloro-7-(2-hydroxyethoxymethyl)pyrrolo[2,3-d]-pyrimidine]: the “activity against HSV-1 (in words)” value in data set [1] is listed as “less potent activity”. Besides, the IC50 is 77 µM in data set [1] and 16 µM in data set [2] (setting [7]). For the same molecule, the “activity against HCMV (in words)” value in data set [2] is given as “active”. Moreover, the IC90 in data set [3] is 46 µM; in data set [5] (setting [8]), 50 µM. For the same molecule, the CC50 in data set [4] and in data set [6] was over 100 µM throughout.
As for `Nc1ncnc2c1c(Br)cn2COCCO` [UMJD 102, 4-Amino-5-bromo-7-(2-hydroxyethoxymethyl)pyrrolo[2,3-d]-pyrimidine], the “activity against HSV-1 (in words)” value in data set [1] is reported as “less potent activity”. Further, the IC50 was found to be 11 µM in data set [1] and 3.9 µM in data set [2] (Human betaherpesvirus 5, read-out: HCMV Titer, Plaque or Yield Reduction, 50% Inhibitory Concentration). Also, in data set [2], the “activity against HCMV (in words)” value is reported as “active”. In addition, the IC90 in data set [3] came out at 13 µM; in data set [5] (setting [8]) it was 30 µM. The results for the CC50 in data set [4] and in data set [6] were over 100 µM and 100 µM, respectively.
`Nc1ncnc2c1c(I)cn2COCCO` [UMJD 104, 4-Amino-5-iodo-7-(2-hydroxyethoxymethyl)pyrrolo[2,3-d]-pyrimidine]: the “activity against HSV-1 (in words)” value in data set [1] is “less potent activity”. The IC50 in data set [1] stood at 250 µM; in data set [2] (setting [7]) it was 24 µM. Further, in data set [2], the “activity against HCMV (in words)” value is “active”. In addition, the IC90 in data set [3] is 14 µM; in data set [5] (setting [8]) it was over 100 µM. Further, the CC50 in data set [4] is over 100 µM; in data set [6], 100 µM.
In the case of `Nc1ncnc2c1c(Br)cn2COC(CO)CO` [UMJD 183, 4-amino-5-bromo-7-[(1,3-dihydroxy-2-propoxy)methyl]-pyrrolo[2,3-d]pyrimidine], the IC50 in data set [1] is 2 µM. In data set [2], the “activity against HCMV (in words)” value is given as “most active”. This molecule also yielded a log reduction at 10 µM in data set [3] (FIG. 2, 10 μM) of about 5. Moreover, the IC90 in data set [3] was 1.9 µM; in data set [5] (setting [8]), 17 µM. Moreover, the CC50 in data set [4] and in data set [6] was over 100 µM in each case.
In the case of `Nc1ncnc2c1c(Cl)cn2COC(CO)CO` [UMJD 186, 4-amino-5-chloro-7-[(1,3-dihydroxy-2-propoxy)-methyl]pyrrolo[2,3-d]pyrimidine], in data set [1], the IC50 was 16 µM. The log reduction at 100 µM in data set [3] (FIG. 2, 10-fold higher concentration than UMJD 183 (10 μM)) was found to be 5. Besides, the values for the IC90 in data set [3] and in data set [5] (setting [8]) were 8 µM and 3.5 µM, respectively. In addition, the CC50 in data set [4] and in data set [6] was over 100 µM each time.
As to `OCC(CO)OCn1cc(Br)c2c(NO)ncnc21` [UMJD 299, 4-hydroxylamino-5-bromo-7-[(1,3-dihydroxy-2-propoxy)methyl]pyrrolo[2,3-d]pyrimidine], in data set [1], the IC50 came to 2.9 µM. The “activity against HCMV (in words)” value in data set [2] is “active and nearly as potent as the 4-amino analogs”. Also, the figures for the IC90 in data set [3] and in data set [5] (setting [8]) were 10 µM and over 100 µM, respectively. Besides, in data set [6], the CC50 was over 100 µM.
